Laboratory results as given in publication PMC3596469 (European journal of pharmaceutical sciences : official …, 2013).
Read-outs that look alike come from different tables or passages of the source.

Experiments:
Human sEH = target: T1, Human sEH (Homo sapiens, UniProt P34913); assay: Radioactive sEH inhibition assay; format: biochemical; conditions: read-out: IC50 Human sEH (value in parentheses); [3H] t-DPPO as substrate
T1 sequence (P34913 1-555): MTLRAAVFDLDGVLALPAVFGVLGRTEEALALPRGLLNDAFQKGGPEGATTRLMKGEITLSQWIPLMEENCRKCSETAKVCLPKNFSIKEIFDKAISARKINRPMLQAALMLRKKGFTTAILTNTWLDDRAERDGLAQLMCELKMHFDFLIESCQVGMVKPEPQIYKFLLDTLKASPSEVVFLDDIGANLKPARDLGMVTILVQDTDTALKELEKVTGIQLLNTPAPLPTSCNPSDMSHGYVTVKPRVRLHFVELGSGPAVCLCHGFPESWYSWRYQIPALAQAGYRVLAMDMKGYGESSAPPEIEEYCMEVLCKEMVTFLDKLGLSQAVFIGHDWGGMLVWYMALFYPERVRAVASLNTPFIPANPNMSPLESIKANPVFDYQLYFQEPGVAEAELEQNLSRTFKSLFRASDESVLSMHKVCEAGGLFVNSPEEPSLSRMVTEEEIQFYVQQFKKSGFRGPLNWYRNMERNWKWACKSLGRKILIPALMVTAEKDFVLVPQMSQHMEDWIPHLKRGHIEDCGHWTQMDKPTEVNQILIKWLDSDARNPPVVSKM

[1] = mouse, in vivo, po
[2] = mouse, in vivo, po, 1 mg/kg; cited from earlier work
[3] = for oral bioavailability: from AUC values; for blood levels at the lowest oral dose: oral 0.1 mg/kg, 24 h sampling
[4] = tested on: LPS-induced release of inflammatory cytokines in plasma; assay: Plasma cytokines in LPS-challenged murine model; format: in vivo, Male Swiss Webster mice
[5] = tested on: plasma epoxides and diols (biomarker of sEH action); assay: Plasma oxylipin profile; format: in vivo, Male Swiss Webster mice
LPS-challenged mice = assay: Food intake and body weight in LPS-challenged murine model; format: in vivo, Male Swiss Webster mice; conditions: for animals' appetite, 1st day post LPS challenge: oral administration
[6] = PK after i.v. injection in mice, 2-compartmental analysis; conditions: i.v. 0.01 mg/kg
[7] = mice, oral gavage 0.1 mg/kg, blood
[8] = mice, oral gavage 0.3 mg/kg, blood
[9] = mice, oral gavage 1.0 mg/kg, blood
[10] = mice, oral gavage 3.0 mg/kg, blood
[11] = LPS 3 mg/kg + inhibitor 3 mg/kg single dose, terminated 48 h
[12] = LPS 3 mg/kg + inhibitor 3 mg/kg, terminated 24 h
[13] = male, Swiss Webster, mouse, whole blood, po, 0.1 mg/kg
[14] = male, Swiss Webster, mouse, whole blood, po, 0.3 mg/kg
[15] = male, Swiss Webster, mouse, whole blood, po, 1 mg/kg
[16] = male, Swiss Webster, mouse, whole blood, po, 3 mg/kg

Compound: 1-chlorophenyl-3-(1-propionylpiperidin-4-yl)urea [CPPU]
- IC50 (Human sEH): 280 nM
- AUCt ([1]; 0.1 mg/kg): 2.3 ± 0.4 µM·h
- MRT ([1]; 0.1 mg/kg): 13.1 ± 13.5 h
- AUCt ([1]; 0.3 mg/kg): 6.1 ± 1.7 µM·h
- MRT ([1]; 0.3 mg/kg): 16.4 ± 6.3 h
- AUCt ([1]; 1 mg/kg): 31.7 ± 18.4 µM·h
- MRT ([1]; 1 mg/kg): 17.2 ± 7.3 h
- AUCt ([1]; 3 mg/kg): 140 ± 93 µM·h
- MRT ([1]; 3 mg/kg): 17.1 ± 1.3 h

Compound: CC(=O)N1CCC(NC(=O)NC23CC4CC(CC(C4)C2)C3)CC1 [APAU, 1-(1-acetypiperidin-4-yl)-3-adamantanylurea]
- AUCt [2]: 1.4±0.3 0.35±0.15 uM•h
- MRT [2]: 20±4.2 22.2±4.3 h

Compound: O=C(Nc1ccc(OC(F)(F)F)cc1)NC1CCN(C(=O)C2CC2)CC1 [TCPU, 1-(4-trifluoro-methoxy-phenyl)-3-(1-cyclopropanecarboxylpiperidin-4-yl)urea]
- AUCt ([3]; mice, oral gavage 0.1 mg/kg): 2.2 ± 1.1 µM·h
- MRT ([3]; mice, oral gavage 0.1 mg/kg): 18.9 ± 6.6 h
- Tmax ([3]; mice, oral gavage 0.1 mg/kg): 5.3 ± 1.2 h
- Cmax [3, 7]: 270 ± 120 nM
- AUCt ([3]; mice, oral gavage 0.3 mg/kg): 16.6 ± 8.8 µM·h
- MRT ([3]; mice, oral gavage 0.3 mg/kg): 16.9 ± 5.4 h
- Cmax [3, 8]: 1680 nM
- AUCt ([3]; mice, oral gavage 1.0 mg/kg): 43.8 ± 5.1 µM·h
- MRT ([3]; mice, oral gavage 1.0 mg/kg): 24.0 ± 1.8 h
- Tmax ([3]; mice, oral gavage 1.0 mg/kg): 3.2 ± 2.2 h
- Cmax [3, 9]: 2560 nM
- AUCt ([3]; mice, oral gavage 3.0 mg/kg): 94.3 ± 8.0 µM·h
- MRT ([3]; mice, oral gavage 3.0 mg/kg): 32.1 ± 5.6 h
- Tmax ([3]; mice, oral gavage 3.0 mg/kg): 3.9 ± 2.5 h
- Cmax [3, 10]: 5160 nM

Compound: CCC(=O)N1CCC(NC(=O)Nc2ccc(OC(F)(F)F)cc2)CC1 [TPPU, 1-(4-trifluoro-methoxy-phenyl)-3-(1-propionylpiperidin-4-yl)urea]
- IL-6 in plasma [4, 11]: 9 ± 0.5 pg/mL
- IL-10 in plasma [4, 11]: 7.7 ± 0.5 pg/mL
- INF-γ in plasma [4, 11]: 2.0 ± 0.5 pg/mL
- MCP-1 in plasma [4, 11]: 260 ± 50 pg/mL
- TNF-α in plasma [4, 11]: 11 ± 1 pg/mL
- IL-6 in plasma [4, 12]: 118 ± 65 pg/mL
- IL-10 in plasma [4, 12]: 8.7 ± 0.4 pg/mL
- INF-γ in plasma [4, 12]: 9.7 ± 3.0 pg/mL
- MCP-1 in plasma [4, 12]: 1970 ± 900 pg/mL
- TNF-α in plasma [4, 12]: 28 ± 14 pg/mL
- reduction of cytokine or chemokine release one day after treatment ([4]; LPS-challenged mice): Neither the administration of TPPU nor the t-AUCB treatment demonstrated a beneficial effect
- oral bioavailability ([3]; mice, oral 0.1 mg/kg vs i.v. 0.01 mg/kg): 43 ± 25%
- blood levels at the lowest oral dose ([3]; mice): above their in vitro IC50 values throughout the sampling time
- oral bioavailability ([3]; mice, oral 0.3 mg/kg vs i.v. 0.01 mg/kg): 36 ± 5%
- oral bioavailability ([3]; mice, oral 1.0 mg/kg vs i.v. 0.01 mg/kg): 31 ± 2%
- oral bioavailability ([3]; mice, oral 3.0 mg/kg vs i.v. 0.01 mg/kg): 18 ± 3%
- MRT ([3]; mice, oral gavage 0.1 mg/kg): 56.9 ± 5.4 h
- Tmax ([3]; mice, oral gavage 0.1 mg/kg): 2 ± 0 h
- Cmax [3, 7]: 445 ± 200 nM
- MRT ([3]; mice, oral gavage 0.3 mg/kg): 69.5 ± 2.2 h
- Tmax ([3]; mice, oral gavage 0.3 mg/kg): 2 ± 0 h
- Cmax [3, 8]: 1560 nM
- MRT ([3]; mice, oral gavage 1.0 mg/kg): 26.8 ± 2.2 h
- Tmax ([3]; mice, oral gavage 1.0 mg/kg): 2.7 ± 1.2 h
- Cmax [3, 9]: 5370 nM
- MRT ([3]; mice, oral gavage 3.0 mg/kg): 24.0 ± 0.2 h
- Tmax ([3]; mice, oral gavage 3.0 mg/kg): 3.7 ± 1.8 h
- Cmax [3, 10]: 7100 nM
- plasma levels of both EETs and EpOMEs ([5]; 1- and 2-day post treatment, LPS-challenged mice): significantly increased
- plasma levels of both DHOMEs and DHETs ([5]; 2-day post LPS treatment): significantly decreased
- animal's appetite (pilot study) (LPS-challenged mice; 1 mg/kg): no favorable effect was observed
- animal's appetite at 2 days post treatment (pilot study) (LPS-challenged mice; oral 3 mg·kg^-1): improved
- animals' appetite, 1st day post LPS challenge (LPS-challenged mice; LPS-challenged mice): did not improve
- animals' appetite, 2nd day post LPS challenge (LPS-challenged mice; oral, TPPU 3 mg/kg once, t-AUCB 3 mg/kg twice, LPS-challenged mice): significantly improved
- AUCt [6]: 3.5 ± 0.4 µM·h
- Cl (clearance) [6]: 20 ± 1.7 mL/min/kg
- T1/2β (half life of elimination phase) [6]: >24 h
- Vdss (volume distribution at steady state) [6]: 4.8 ± 1.8 L/kg

Compound: CS(=O)(=O)N1CCC(NC(=O)Nc2ccc(OC(F)(F)F)cc2)CC1 [TUPS, 1-(1-methanesulfonyl-piperidin-4-yl)-3-(4-trifluoromethoxy-phenyl)-urea]
- Cmax [3, 13]: < 0.4 nM
- AUC(0-t) [3, 14]: 5.3 µM·h
- MRT [3, 14]: 21.5 h
- AUC(0-t) [3, 15]: 24.2 µM·h
- Cmax [3, 15]: 1650 nM
- MRT [3, 15]: 17.4 h
- AUC(0-t) [3, 16]: 48.5 µM·h
- Cmax [3, 16]: 2860 nM
- MRT [3, 16]: 22.7 h
- blood levels at the lowest oral dose ([3]; mice): under the respective detection limit

Compound: O=C(NC12CC3CC(CC(C3)C1)C2)N[C@H]1CC[C@H](Oc2ccc(C(=O)O)cc2)CC1 [t-AUCB, trans-4-[4-(3-adamantan-1-yl-ureido)-cyclohexyloxy]-benzoic acid, reference compound]
- animals' appetite, 1st day post LPS challenge (LPS-challenged mice; LPS-challenged mice): did not improve

Compound: O=C(Nc1ccc(OC(F)(F)F)cc1)N[C@H]1CC[C@H](Oc2ccc(C(=O)O)cc2)CC1 [t-TUCB, trans-4-[4-[3-(4-Trifluoromethoxy-phenyl)-Ureido]-cyclohexyloxy]-Benzoic acid]
- Cmax [3, 13]: < 0.4 nM
- AUC(0-t) [3, 14]: 0.4 µM·h
- Cmax [3, 14]: 45 nM
- MRT [3, 14]: 12.6 h
- Tmax [3, 14]: 6 h
- AUC(0-t) [3, 15]: 4.5 µM·h
- Cmax [3, 15]: 410 nM
- MRT [3, 15]: 12.6 h
- Tmax [3, 15]: 5.9 h
- AUC(0-t) [3, 16]: 16.1 µM·h
- Cmax [3, 16]: 2120 nM
- MRT [3, 16]: 8 h
- Tmax [3, 16]: 2.6 h
- blood levels at the lowest oral dose ([3]; mice): under the respective detection limit
